{"source": "patent US12409239B2", "about": "“Particles for use in hyperpolarization” (BEACON MRI LTD, priority 2021, dated 2025)", "origin": "cited, not measured here", "details": "background statement", "data": [{"smiles": "CC(=O)C(=O)O", "note": "[pyruvate/pyruvic acid, pyruvic acid]", "values": [{"measurement": "T1", "value": "about a minute"}]}]}
